Consider six compounds from ChEMBL document CHEMBL1201862, “PubChem BioAssay data set” (2004).

Activity calls are given as the source filed them.

In test [1] the target is T1, Dual specificity protein phosphatase 6 (Rattus norvegicus, UniProt Q64346).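 Note: confirmatory in vitro dose-response testing of MKP-3 inhibition; recombinant His-tagged MKP-3 made in E. coli BL21 with OMFP substrate.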
T1 sequence (Q64346 whole entry): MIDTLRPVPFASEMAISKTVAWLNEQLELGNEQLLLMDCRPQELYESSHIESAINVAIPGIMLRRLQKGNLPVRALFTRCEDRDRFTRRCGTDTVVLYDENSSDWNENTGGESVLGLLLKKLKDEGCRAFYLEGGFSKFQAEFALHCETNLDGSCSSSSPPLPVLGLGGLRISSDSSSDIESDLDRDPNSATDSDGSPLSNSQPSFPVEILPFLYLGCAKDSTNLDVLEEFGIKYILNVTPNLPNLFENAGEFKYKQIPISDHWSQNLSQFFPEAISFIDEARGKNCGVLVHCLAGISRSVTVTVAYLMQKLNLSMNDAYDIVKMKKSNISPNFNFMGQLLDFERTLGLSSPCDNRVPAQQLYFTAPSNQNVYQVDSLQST
Format: functional.

Test [2] concerns the target T2, Dual specificity protein phosphatase 3 (Homo sapiens, UniProt P51452). The test is described as follows: SAR VHR1 Fluorescent Assay for In Vitro dose response studies. [Related pubchem assays (depositor defined):AID1654, AID1661, AID1878, AID1992, AID2004, AID2070, AID2085]. In kind it is functional.
Test [3] concerns the target T3, Tyrosine-protein phosphatase non-receptor type 22 (Homo sapiens, UniProt Q9Y2R2).
T3 sequence (Q9Y2R2 whole entry): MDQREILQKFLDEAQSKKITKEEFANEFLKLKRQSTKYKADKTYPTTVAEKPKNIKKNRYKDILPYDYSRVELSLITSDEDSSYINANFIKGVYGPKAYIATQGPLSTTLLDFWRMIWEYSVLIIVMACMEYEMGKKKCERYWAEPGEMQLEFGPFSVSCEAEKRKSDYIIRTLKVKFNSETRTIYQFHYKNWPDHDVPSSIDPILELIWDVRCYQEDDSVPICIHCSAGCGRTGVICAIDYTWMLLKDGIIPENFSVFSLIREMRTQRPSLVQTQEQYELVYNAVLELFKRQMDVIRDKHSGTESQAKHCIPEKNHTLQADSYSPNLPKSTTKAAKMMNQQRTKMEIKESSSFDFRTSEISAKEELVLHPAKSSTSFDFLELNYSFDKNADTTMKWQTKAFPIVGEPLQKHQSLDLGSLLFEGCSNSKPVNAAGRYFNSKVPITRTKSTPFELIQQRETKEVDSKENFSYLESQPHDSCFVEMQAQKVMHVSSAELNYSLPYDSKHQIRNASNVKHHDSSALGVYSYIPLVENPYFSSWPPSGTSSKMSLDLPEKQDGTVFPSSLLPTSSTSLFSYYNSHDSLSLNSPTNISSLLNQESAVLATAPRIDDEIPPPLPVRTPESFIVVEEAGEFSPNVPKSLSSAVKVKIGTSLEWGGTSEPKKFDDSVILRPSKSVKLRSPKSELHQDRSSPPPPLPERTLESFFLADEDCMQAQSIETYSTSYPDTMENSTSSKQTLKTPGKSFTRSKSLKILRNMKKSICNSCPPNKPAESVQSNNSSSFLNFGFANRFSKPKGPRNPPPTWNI
The test is described as follows: SAR LYP1 Fluorescent Assay using OMFP substrate for In Vitro dose response studies - Set 3. [Related pubchem assays (depositor defined):AID1779, AID1784, AID2140, AID2686]. In kind it is functional.

Test [4] has as its target T2, Dual specificity protein phosphatase 3. Put plainly: SAR VHR1 absorbance Assay for In Vitro dose response studies. [Related pubchem assays (depositor defined):AID1654, AID1661, AID1878, AID1992, AID2004].
For test [5], the target named is T4, Tyrosine-protein phosphatase non-receptor type 7 (Homo sapiens, UniProt P35236).
T4 sequence (P35236 whole entry): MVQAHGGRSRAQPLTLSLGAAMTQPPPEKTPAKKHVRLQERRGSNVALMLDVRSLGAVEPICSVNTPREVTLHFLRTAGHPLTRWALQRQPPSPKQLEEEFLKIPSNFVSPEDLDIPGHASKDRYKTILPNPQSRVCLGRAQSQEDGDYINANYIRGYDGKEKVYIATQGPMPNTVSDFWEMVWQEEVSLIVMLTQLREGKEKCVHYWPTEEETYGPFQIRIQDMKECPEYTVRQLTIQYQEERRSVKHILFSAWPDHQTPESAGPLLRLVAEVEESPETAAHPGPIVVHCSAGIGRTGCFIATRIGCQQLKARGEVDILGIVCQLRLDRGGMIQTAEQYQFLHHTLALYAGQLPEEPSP
Put plainly: redox-active compounds inhibiting HePTP phosphatase – biochemical, fluorescence, mechanism study (AID 2068). Format: functional.

The target in test [6] is T3, Tyrosine-protein phosphatase non-receptor type 22. The test is described as follows: inhibition of lymphoid tyrosine phosphatase LYP – biochemical, pCAP fluorogenic substrate, fluorescence, set 3, SAR follow-up (AID 449727). Format: functional.
In test [7] the target is Tyrosine-protein phosphatase non-receptor type 12 (Homo sapiens, UniProt Q05209). Put plainly: SAR Selectivity Analysis of small molecule inhibitors of PEST using pCAP in a fluorescence assay. [Related pubchem assays (depositor defined):AID1779, AID1784, AID2135]. In kind it is functional.
The nature of test [8]: A small molecule screen for inhibitors of the PhoP region in Salmonella typhi (4) using purified and synthesized compounds. [Related pubchem assays (depositor defined):AID1850, AID1864, AID1985, AID2252, AID2384, AID2612, AID2811, AID434995]. Format: functional.
In test [9] the target is T5, Voltage-gated N-type calcium channel alpha-1B subunit/Amyloid beta A4 precursor protein-binding family A member 1 (Homo sapiens, UniProt Q00975+Q02410). In kind it is protein assay.
T5 sequence (Q00975 whole entry): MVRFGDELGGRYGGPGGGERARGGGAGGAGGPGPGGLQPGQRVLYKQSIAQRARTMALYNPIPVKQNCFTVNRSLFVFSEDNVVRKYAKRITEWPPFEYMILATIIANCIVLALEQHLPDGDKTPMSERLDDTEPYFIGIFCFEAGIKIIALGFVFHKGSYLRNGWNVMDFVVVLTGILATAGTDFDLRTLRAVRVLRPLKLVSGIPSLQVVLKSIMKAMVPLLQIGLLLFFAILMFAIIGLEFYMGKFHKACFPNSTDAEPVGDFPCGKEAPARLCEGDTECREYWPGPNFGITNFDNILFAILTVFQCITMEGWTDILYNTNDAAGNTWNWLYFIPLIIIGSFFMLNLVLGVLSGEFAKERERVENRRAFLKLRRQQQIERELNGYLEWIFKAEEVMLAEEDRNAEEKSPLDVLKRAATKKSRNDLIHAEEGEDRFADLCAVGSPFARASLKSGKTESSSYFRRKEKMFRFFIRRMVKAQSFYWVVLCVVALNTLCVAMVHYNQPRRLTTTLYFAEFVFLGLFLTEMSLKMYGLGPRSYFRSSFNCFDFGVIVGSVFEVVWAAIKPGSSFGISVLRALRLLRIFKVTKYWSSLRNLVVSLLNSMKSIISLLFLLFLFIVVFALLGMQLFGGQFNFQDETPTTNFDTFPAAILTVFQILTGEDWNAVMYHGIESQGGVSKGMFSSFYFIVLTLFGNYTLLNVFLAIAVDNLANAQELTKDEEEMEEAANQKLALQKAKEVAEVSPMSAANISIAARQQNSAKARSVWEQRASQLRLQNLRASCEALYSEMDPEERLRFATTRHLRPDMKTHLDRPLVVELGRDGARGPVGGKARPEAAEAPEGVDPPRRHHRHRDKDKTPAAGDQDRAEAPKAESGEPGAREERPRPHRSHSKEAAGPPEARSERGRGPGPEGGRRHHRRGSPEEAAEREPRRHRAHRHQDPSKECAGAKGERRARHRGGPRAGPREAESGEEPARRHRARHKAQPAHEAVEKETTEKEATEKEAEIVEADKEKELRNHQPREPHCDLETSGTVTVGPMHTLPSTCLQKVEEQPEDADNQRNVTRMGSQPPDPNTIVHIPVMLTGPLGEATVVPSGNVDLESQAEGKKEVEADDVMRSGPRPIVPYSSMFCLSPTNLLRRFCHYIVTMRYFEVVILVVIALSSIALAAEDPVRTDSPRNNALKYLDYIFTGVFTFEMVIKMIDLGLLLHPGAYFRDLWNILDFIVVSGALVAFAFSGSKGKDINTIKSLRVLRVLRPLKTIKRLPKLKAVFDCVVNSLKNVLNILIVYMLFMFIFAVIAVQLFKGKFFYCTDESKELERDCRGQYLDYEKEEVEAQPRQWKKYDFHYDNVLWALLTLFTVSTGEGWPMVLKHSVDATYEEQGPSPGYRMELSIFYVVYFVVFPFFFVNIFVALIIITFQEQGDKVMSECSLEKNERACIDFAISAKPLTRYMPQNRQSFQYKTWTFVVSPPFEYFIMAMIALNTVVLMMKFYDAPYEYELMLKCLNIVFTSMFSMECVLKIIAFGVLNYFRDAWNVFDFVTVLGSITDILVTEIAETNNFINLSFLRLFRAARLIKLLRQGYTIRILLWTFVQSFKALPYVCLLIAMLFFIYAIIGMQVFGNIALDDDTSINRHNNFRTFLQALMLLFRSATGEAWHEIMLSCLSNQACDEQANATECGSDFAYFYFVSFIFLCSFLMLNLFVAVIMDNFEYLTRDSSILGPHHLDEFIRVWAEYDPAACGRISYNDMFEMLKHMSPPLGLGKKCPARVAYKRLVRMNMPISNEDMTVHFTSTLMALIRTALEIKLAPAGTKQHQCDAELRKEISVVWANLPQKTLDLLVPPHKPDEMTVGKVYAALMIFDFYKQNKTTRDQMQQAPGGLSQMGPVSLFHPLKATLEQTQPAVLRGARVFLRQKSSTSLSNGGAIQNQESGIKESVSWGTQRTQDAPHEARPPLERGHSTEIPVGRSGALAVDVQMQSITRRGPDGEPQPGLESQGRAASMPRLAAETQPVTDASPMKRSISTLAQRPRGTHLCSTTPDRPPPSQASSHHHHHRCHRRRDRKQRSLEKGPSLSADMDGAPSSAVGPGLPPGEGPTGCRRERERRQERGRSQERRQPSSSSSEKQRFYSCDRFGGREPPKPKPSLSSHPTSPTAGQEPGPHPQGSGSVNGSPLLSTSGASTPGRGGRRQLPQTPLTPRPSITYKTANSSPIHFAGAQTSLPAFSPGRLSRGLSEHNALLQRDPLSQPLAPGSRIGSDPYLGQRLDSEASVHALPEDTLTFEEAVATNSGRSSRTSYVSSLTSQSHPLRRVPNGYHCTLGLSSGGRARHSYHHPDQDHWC
T5 sequence (Q02410 whole entry): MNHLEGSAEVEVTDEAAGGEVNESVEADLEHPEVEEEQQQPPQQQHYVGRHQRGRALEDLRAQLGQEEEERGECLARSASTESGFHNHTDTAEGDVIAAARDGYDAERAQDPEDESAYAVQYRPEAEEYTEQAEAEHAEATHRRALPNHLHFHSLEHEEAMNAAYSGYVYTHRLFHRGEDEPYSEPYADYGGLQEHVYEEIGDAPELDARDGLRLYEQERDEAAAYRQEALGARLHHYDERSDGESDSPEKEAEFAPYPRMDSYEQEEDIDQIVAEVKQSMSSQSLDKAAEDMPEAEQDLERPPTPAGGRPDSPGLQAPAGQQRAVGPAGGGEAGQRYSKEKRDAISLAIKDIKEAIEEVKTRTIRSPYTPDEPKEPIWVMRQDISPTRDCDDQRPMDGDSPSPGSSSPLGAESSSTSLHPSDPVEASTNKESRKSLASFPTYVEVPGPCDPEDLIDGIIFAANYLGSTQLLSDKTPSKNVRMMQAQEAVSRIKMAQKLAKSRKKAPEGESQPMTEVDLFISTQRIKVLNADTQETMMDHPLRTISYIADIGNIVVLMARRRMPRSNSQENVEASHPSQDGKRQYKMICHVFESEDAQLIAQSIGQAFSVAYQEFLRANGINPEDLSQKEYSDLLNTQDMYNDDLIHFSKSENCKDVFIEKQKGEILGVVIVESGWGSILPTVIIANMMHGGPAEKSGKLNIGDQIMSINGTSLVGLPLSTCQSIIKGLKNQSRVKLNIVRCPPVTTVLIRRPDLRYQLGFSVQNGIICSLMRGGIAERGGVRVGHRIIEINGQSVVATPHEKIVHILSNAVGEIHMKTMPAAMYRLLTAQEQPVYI
Test [10] deals with DNA dC->dU-editing enzyme APOBEC-3G (Homo sapiens, UniProt Q9HC16). Put plainly: Dose Response confirmation of small molecule APOBEC3G DNA Deaminase Inhibitors via a fluorescence-based single-stranded DNA deaminase assay. [Related pubchem assays (depositor defined):AID493012, AID493028]. In kind it is functional.
In test [11] the target is T5, Voltage-gated N-type calcium channel alpha-1B subunit/Amyloid beta A4 precursor protein-binding family A member 1. In kind it is protein assay. The source holds these as a separate data set.
Test [12] addresses T6, Runt-related transcription factor 1/Core-binding factor subunit beta (Homo sapiens, UniProt Q01196+Q13951). The test is described as follows: disruptors of Runt domain/CBFb-SMMHC interaction – biochemical, FRET, Cerulean-Runt, Venus-CBFb-SMMHC, uHTS, […] (AID 1434). Format: protein assay.
Test [13] has as its target Glucose-6-phosphate 1-dehydrogenase (Homo sapiens, UniProt P11413). Put plainly: inhibition of Homo sapiens G6PD, dose series – biochemical, fluorescence, selectivity assay for P. falciparum G6PD inhibitor project, dose response (AID 504792). Format: functional.
For test [14], the target named is T7, Mannose-6-phosphate isomerase (Homo sapiens, UniProt P34949).
T7 sequence (P34949 whole entry): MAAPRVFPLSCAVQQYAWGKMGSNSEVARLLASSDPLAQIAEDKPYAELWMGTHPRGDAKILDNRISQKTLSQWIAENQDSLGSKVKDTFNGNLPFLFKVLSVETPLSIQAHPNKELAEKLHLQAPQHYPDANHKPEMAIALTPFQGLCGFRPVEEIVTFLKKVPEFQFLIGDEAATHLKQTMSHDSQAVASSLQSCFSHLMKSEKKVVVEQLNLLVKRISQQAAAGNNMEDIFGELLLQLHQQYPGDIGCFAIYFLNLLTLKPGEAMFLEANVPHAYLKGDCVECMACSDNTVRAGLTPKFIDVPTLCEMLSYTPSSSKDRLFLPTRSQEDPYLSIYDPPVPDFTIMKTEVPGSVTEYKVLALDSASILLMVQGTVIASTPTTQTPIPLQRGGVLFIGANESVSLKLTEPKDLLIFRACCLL
Put plainly: phosphomannose isomerase inhibition – biochemical, fluorescence intensity, confirmation (AID 1535).

For test [15], the target named is DNA dC->dU-editing enzyme APOBEC-3A (Homo sapiens, UniProt P31941). Put plainly: A3A deaminase inhibition for selectivity – biochemical, dose response (AID 504722). Format: functional.
Chain of DNA dC->dU-editing enzyme APOBEC-3A (P31941 whole entry, the tested form may be a part): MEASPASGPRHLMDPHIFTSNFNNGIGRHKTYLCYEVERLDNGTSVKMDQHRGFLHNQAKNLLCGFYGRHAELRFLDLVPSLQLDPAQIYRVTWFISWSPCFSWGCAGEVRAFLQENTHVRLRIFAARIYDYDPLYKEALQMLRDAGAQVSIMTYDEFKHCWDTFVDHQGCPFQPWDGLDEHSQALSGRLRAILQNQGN
For test [16], the target named is T6, Runt-related transcription factor 1/Core-binding factor subunit beta. Put plainly: Runt domain/CBFb-SMMHC interaction disruptors – biochemical, TR-FRET (AID 1438). In kind it is protein assay.
Test [17] has as its target T7, Mannose-6-phosphate isomerase. The test is described as follows: MPI inhibition at elevated mannose 6-phosphate – biochemical, fluorescence intensity, high mannose 6-phosphate, primary screen (AID 1220).
The next test deals with T8, Phosphomannomutase 2 (Homo sapiens, UniProt O15305).
T8 sequence (O15305 whole entry): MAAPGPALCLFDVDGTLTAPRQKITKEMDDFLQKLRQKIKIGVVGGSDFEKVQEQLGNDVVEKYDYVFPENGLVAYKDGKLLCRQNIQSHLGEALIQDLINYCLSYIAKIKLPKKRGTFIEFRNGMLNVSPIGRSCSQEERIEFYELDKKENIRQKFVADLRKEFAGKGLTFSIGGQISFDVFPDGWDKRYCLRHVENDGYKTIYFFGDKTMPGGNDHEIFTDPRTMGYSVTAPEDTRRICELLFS
Put plainly: Counter screen SAR assay for PMM2 inhibitors via a fluorescence intensity assay. [Related pubchem assays (depositor defined):AID1545, AID1574].

In test [18] the target is DNA damage-inducible transcript 3 protein (Mus musculus, UniProt P35639). Format: functional, Cricetulus griseus.
Chain of DNA damage-inducible transcript 3 protein (P35639 whole entry): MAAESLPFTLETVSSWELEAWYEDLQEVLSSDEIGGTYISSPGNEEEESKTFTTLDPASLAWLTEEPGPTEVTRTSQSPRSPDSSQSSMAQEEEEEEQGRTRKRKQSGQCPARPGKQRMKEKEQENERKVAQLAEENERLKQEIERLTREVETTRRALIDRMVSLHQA
In another test the test system is HEK293. Put plainly: EBV LMP1 TES2 canonical NF-kB signalling blockers – cell-based, HEK293, luciferase, cherry-pick, dose response (AID 588343). Particulars: Homo sapiens. Format: functional.
Another test has as its target Mucolipin-3 (Homo sapiens, UniProt Q8TDD5). Put plainly: Fluorescence counterscreen assay for […] agonists: dose response cell-based high-throughput screening assay to identify agonists of the transient receptor potential channel ML3 (TRPML3). [Related pubchem assays: 1424, 1448 ]. Format: functional.
For test [19], the target named is T9, High affinity choline transporter 1 (Homo sapiens, UniProt Q9GZV3).
T9 sequence (Q9GZV3 whole entry): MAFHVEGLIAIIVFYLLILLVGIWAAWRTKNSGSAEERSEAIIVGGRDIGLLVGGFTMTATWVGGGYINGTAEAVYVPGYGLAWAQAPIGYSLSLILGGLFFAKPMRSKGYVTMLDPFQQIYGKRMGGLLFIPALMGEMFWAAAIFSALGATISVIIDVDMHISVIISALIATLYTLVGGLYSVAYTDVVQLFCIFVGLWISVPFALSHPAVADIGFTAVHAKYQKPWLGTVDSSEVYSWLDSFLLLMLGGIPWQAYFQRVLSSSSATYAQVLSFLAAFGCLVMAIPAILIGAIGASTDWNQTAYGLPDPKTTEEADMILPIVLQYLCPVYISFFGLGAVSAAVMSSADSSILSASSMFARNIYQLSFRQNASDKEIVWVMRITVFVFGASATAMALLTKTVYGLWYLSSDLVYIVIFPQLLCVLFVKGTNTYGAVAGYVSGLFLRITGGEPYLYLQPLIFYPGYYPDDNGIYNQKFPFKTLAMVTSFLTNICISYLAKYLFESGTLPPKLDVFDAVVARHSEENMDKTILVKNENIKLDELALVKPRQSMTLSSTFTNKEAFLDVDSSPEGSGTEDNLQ
Put plainly: human choline transporter blockers, potency – cell-based, 5-point CRC, membrane potential dye, dose response (AID 504840). In kind it is functional.

The nature of test [20]: viability of PTEN-deleted HCT116 cells – cell-based, HCT116 PTEN knockout, dose response (AID 1047).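 Note: HCT116 colon tumor cells with PTEN knocked out; cells exposed to compound for 60 hours before readout; potency for loss of cell viability measured by luminescence.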 Format: functional.
The nature of test [21]: viability of HCT116 lacking mutant beta-catenin – cell-based, human colon tumor, dose response (AID 1045).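 Note: HCT116 colon tumor cells with beta catenin knocked out; cells exposed to compound for 60 hours.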 In kind it is functional.
A further test concerns the target Ion channel NompC (Danio rerio, UniProt Q7T1G6). Put plainly: Dose response cell-based high-throughput screening assay for agonists of the transient receptor potential channel N1 (TRPN1). [Related pubchem assays (depositor defined):AID1424, AID1448]. Format: functional.
The target of test [22] is Type-1 angiotensin II receptor (Homo sapiens, UniProt P30556). Put plainly: agonist activity at AGTR1 – cell-based, uHTS hits, selectivity assay for APJ receptor agonist project, dose response (AID 488865).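 Note: beta-arrestin recruitment to AT1 measured by enzyme fragment complementation luminescence.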 Format: functional.

T2 sequence (P51452 whole entry): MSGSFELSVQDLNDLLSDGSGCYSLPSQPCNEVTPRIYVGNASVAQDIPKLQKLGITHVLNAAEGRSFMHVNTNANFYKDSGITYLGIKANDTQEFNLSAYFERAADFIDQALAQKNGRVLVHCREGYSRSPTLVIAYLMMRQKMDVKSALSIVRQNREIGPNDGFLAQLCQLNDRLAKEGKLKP
T6 sequence (Q01196 whole entry, the tested form may be a part): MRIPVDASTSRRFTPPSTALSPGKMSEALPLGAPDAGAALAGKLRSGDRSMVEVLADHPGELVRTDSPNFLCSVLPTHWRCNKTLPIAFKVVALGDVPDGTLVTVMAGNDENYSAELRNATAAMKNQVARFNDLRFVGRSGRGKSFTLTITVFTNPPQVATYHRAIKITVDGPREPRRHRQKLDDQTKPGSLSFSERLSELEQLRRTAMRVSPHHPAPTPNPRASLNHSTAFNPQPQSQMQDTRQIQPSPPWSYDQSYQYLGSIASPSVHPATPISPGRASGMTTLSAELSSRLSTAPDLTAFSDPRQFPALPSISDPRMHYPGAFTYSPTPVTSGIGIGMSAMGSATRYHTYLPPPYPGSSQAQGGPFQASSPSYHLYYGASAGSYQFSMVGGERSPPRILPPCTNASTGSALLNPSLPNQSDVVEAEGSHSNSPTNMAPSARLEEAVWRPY
T6 sequence (Q13951 whole entry, the tested form may be a part): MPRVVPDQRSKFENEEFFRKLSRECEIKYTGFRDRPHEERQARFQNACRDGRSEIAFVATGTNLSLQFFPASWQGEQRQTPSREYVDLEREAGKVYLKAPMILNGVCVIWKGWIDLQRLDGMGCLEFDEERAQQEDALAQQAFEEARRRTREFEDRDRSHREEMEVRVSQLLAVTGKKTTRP
Chain of Mucolipin-3 (Q8TDD5 whole entry): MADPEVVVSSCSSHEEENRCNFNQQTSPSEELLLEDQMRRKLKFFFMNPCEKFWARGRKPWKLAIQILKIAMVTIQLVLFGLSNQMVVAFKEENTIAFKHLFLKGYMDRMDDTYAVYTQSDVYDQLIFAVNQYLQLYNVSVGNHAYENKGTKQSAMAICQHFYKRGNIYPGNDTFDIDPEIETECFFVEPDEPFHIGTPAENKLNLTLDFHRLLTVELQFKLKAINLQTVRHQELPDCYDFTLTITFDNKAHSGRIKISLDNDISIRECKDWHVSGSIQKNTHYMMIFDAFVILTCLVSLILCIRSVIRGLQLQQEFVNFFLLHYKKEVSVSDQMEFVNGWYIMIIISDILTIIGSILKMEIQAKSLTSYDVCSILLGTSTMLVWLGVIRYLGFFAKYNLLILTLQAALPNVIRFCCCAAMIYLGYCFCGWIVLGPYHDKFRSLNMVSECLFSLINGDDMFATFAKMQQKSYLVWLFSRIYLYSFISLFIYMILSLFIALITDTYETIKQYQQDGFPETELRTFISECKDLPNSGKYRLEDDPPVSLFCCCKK

For the compound `O=C(COc1c(Cl)cccc1Cl)Oc1ccc([N+](=O)[O-])cc1`, the IC50 in test [1] is > 99 µM (inactive); in test [2], > 99 µM (inactive); in test [3], > 100 µM (inactive); in test [4] it was > 100 µM (inactive); in [5], 15.1 µM (active); in test [6], 63.7 µM (active). Besides, the IC50 in [7] was 42.5 µM (active).

Take `COc1cccc(CNC(=S)Nc2ccncc2)c1`: in [8], the half-maximal inhibitory concentration (IC50) is 164 µM (active).

Consider `CCOC(=O)Cc1csc(-n2sc3ccccc3c2=O)n1`, for which the IC50 in [9] is > 50 µM (inactive); in test [10], 12.6 µM (active); in test [11], 1.15 µM (active); in test [12], 5.4 µM (active); in test [13], 21.6 µM (inactive); in test [14] it was > 50 µM (inactive). Also, the IC50 was > 100 µM (inactive) in [15], 8.58 µM (active) in test [16], 23.5 µM (active) in test [17] and > 100 µM (inactive) at Phosphomannomutase 2.

In the case of `Cc1nc(SCC(=O)Nc2ccc(C)c(F)c2)c2oc3ccccc3c2n1`, in test [18], the “Absolute IC50 (CHOP)” value came to 10 µM.

`CCCCN=C(S)Nc1ccc([N+](=O)[O-])cc1`: the AC50 in the test with HEK293 is 105 µM (active). The EC50 on Mucolipin-3 was > 29.9 µM (not active); in test [20], 19.6 µM (active); in [21] it was 20.7 µM (active); on Ion channel NompC, > 29.9 µM (inactive). Besides, the IC50 in test [19] was 12 µM (active).

Take `CCOC(=O)C1=C(Cn2cnc3ccccc32)NC(=O)NC1c1cc(C)ccc1C` (stereo unspecified): the EC50 in test [22] was > 100 µM (inactive).
